Source: patent publication US20240166645A1, “PYRIDOPYRIMIDINONE DERIVATIVE, PREPARATION METHOD THEREFOR, AND USE THEREOF” (Wuhan Humanwell Innovative Drug Research and Development …, priority 2021, published 2024)

Experiments:
CYP3A4 = CYP3A4 (Homo sapiens (Human), UniProt P08684); assay: Inhibition test on cytochrome P450 subtype CYP3A4; assay type: in vitro ADME; settings: at 10 μM, compared with the control compound I
Method: The inhibitory potential of compounds on cytochrome P450 (CYP450) subtype CYP3A4 (two substrates of midazolam and testosterone) was detected. First, the compound to be tested was prepared into a 10 mM stock solution in DMSO solvent, and the CYP3A4 inhibitor ketoconazole was prepared as 10 mM, 2.5 mM and 2.5 mM stock solutions in DMSO solvent. The test compound and ketoconazole were diluted to 400-fold final concentration (compound: 10 μM, ketoconazole: 2.5 μM) with acetonitrile.
NADPH cofactor (10 mL of potassium phosphate buffer added with 66.7 mg NADPH) at 4-fold final concentration and substrates were prepared with potassium phosphate buffer (0.1 M, pH=7.4), with CYP3A4 substrate midazolam at a final concentration of […] and CYP3A4 substrate testosterone at a final concentration of 20 μM.
A human liver microsome solution at a concentration of 0.2 mg/mL was prepared with potassium phosphate buffer on ice. A solution of the compound to be tested and a control inhibitor (control compound) solution at 2-fold final concentration were prepared with the human liver microsome solution on ice. The test wells were added with […] of the test compound solution and the control inhibitor solution respectively, and then added with […] of the substrate for duplication. A 96-well assay plate and a NADPH solution were incubated at 37° C. for 5 min, and 15 μL of pre-heated 8 mM NADPH solution was added to the assay plate to initiate the reaction. A CYP3A4 assay plate was pre-incubated at 37° C. for 5 min. The plate was added with 120 μL of acetonitrile to terminate the reaction, and after quenching, the plate was shaken on a shaker (IKA, MTS 2/4) for 10 min (600 rpm/min), and then centrifuged for 15 min. After centrifugation, the supernatant was collected, and added with purified water in a ratio of 1:1 to perform LC-MS/MS detection. A ratio of a peak area of compound to a peak area of internal standard was obtained, and the peak area ratio of the compound was compared with the peak area ratio of the control inhibitor to calculate the inhibition rate.

[1] = system: ERK phosphorylation level in DLD-1 cells; assay: Inhibition of ERK phosphorylation level in DLD-1 cells (intracellular western blot); assay type: cell-based; settings: Homo sapiens
Method: Intracellular western blot quantitative analysis was used to detect the inhibitory level of compounds on ERK phosphorylation in DLD-1 cells.
DLD-1 cells (ATCC, CCL-221) were seeded in a T75 culture flask at 2.5×10^6 cells/flask and cultured in a RPMI 1640 medium containing 10% FBS for 2 days. On day 3, the cells were seeded on a 384-well plate, and cultured overnight at 37° C., 5% CO2. After overnight culture, the plate was added with serially diluted compounds (the final content of DMSO was 0.5%), the negative group was added with DMSO, and incubated in a 37° C., 5% CO2 incubator.
The cells were fixed, washed once with PBS, treated to disrupt membranes, and blocked at room temperature for 1 h. The blocking solution was removed. The plate was added with primary antibody (CST, Cat. No. #4370S), and incubated overnight at 4° C. The plate was washed 3 times with PBST (PBS solution added with 0.05% Tween-20) and soaked for 2 min each time. The plate was added with secondary antibody (LI-COR, Cat. No. 926-32211) and incubated at room temperature in the dark. The plate was washed 3 times with PBST and soaked for 2 min each time. The plate was centrifuged at 1000 rpm for 1 min, scanned on a two-color infrared laser imaging system (Odyssey® CLX) to read the signal.
Relative signal=800-channel signal values/700-channel signal values.
Relative expression level of ERK phosphorylation=(test compound−control compound I)/(DMSO group−control compound I)
(§1) IC50 values were calculated using Graphpad 5 software.

KRAS G12C-SOS1 = KRAS G12C-SOS1 (Homo sapiens (Human), UniProt Q07889); assay: Inhibition test of compounds on KRAS G12C::SOS1 binding; settings: GST-KRAS G12C, His-SOS1
Sequence of KRAS G12C-SOS1 (Q07889 whole entry, stated change not applied): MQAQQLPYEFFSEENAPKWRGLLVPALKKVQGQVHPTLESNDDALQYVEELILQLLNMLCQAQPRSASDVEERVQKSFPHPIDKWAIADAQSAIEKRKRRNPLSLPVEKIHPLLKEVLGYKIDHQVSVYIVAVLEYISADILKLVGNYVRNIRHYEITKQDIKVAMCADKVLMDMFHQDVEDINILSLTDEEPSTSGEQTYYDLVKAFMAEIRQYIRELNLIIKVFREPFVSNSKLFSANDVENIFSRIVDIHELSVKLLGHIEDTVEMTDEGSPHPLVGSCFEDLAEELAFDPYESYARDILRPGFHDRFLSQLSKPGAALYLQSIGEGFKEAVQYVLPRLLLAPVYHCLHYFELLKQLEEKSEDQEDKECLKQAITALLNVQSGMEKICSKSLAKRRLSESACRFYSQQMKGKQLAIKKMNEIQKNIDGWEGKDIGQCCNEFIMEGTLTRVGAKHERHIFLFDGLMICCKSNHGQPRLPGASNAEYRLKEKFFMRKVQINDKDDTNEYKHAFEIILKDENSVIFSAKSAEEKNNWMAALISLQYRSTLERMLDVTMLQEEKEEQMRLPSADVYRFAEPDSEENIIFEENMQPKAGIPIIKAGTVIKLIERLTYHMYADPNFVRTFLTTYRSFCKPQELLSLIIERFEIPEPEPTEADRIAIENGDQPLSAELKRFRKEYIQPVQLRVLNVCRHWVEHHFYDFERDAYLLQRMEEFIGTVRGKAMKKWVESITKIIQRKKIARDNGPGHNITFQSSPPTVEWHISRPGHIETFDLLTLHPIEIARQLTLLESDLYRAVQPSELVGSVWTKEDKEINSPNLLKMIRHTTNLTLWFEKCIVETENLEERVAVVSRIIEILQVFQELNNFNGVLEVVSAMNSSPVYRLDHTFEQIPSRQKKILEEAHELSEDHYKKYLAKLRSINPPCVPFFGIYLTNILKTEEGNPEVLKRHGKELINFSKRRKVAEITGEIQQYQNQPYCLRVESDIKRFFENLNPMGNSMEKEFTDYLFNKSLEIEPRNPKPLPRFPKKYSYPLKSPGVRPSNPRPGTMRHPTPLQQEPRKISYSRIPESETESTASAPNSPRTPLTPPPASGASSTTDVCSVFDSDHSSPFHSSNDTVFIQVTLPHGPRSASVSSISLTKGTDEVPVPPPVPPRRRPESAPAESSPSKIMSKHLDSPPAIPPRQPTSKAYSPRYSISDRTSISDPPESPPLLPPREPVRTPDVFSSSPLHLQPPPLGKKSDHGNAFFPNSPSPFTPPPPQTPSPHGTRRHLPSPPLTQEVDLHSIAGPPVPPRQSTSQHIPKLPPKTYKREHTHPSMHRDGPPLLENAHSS
Method: The compound to be tested was prepared into a 10 mM stock solution with DMSO, and the compound was serially diluted using 1× test buffer. 0.1 μL of the compound solution with different concentrations was transferred to a 384-well plate. […] 5 μL of His-SOS1 was added to the 384-well plate, centrifuged at 1000 rpm for 1 min, and incubated at room temperature for 15 min.
After incubation, 10 μL of a mixed solution of anti-6his-Tb monoclonal antibody (Cisbio, Cat. No. 61HI2TLA) and anti-GST-XL665 monoclonal antibody (Cisbio, Cat. No. 61GSTXLA) was added to the test well, centrifuged at 1000 rpm for 1 min, and incubated at room temperature for 1 h.
After incubation, the fluorescence signal ratios at 665 nm and 615 nm were read on a multifunctional microplate reader (Perkin Elmer, Envision 2104), and the IC50 values were calculated using Graphpad 5 software.

H358 cells = assay: Inhibition of 3D cell proliferation (3D CellTiter-Glo); assay type: cell-based; settings: Homo sapiens, NCI-H358, 168 h, read-out: IC50 (nM), inhibition of 3D proliferation of H358 cells, 7 days
Method: H358 cells were seeded in a T75 culture flask and cultured in a RPMI 1640 medium containing 10% FBS for 2 days for subsequent experiments in which the cells would be cultured or seeded on a 384-well plate.
On day 1, the cells were seeded on the 384-well plate, with 40 μL of medium added per well and serially diluted compounds or DMSO added per well, and an additional well without seeded cells but with medium was set up as a blank control. After culture at 37° C., 5% CO2 for 7 days, the plate was added with 3D CellTiter-Glo reagent (Promega, Cat. No. G9683) on day 8, shaken at 320 rpm for 20 min, and left at room temperature for 2 h. Luminescence signals were read on a multifunctional microplate reader. Cell viability inhibition rate was calculated as:
Cell viability inhibition rate=(DMSO group−test compound)/(DMSO group−blank control group)×100%
as §1

[2] = Pharmacokinetic test in mice; assay type: in vivo; settings: mouse, plasma; male ICR mice, oral gavage, 10 mg/kg
Method: Male ICR mice (20 to 25 g) were used and fasted overnight. Three mice were taken and orally administered by gavage (10 mg/kg). Blood was collected before the administration, and at 15 min, 30 min, 1 h, 2 h, 4 h, 8 h and 24 h after the administration. 6,800 g of the blood samples were centrifuged at 2 to 8° C. for 6 min, and plasma was collected and stored at −80° C. The plasma at each time point was taken and added with an acetonitrile solution containing internal standard in 3 to 5 times the amount, vortexed and mixed for 1 min, and centrifuged at 13,000 rpm/min at 4° C. for 10 min. The supernatant was collected, added with water in 3 times the amount, and mixed. An appropriate amount of the mixture was taken for LC-MS/MS analysis. The main pharmacokinetic parameters were analyzed using WinNonlin 7.0 software with non-compartmental model.

[3] = system: Mia Paca-2 pancreatic cancer; assay: Mia Paca-2 pancreatic cancer in vivo efficacy test; set-up: species or system mice; settings: Mia Paca-2, 0.125 mg/kg BID
Method: After one week of adaptive feeding of mice, Mia Paca-2 cells in a log phase were resuspended in serum-free DMEM, and then mixed with Matrigel in a ratio of 1:1.1×10^7 Mia Paca-2 cells were inoculated subcutaneously at the right flank at 100 μL per mouse, and tumor growth was observed regularly. When the tumor grew to an average volume of 150 to 200 mm^3, the mice were randomly divided into a model group and an administration group (single drug, in combination with trametinib) based on the tumor size and body weight. The tumor size and body weight were measured and recorded before and during the administration. After the treatment, the tumor size in the model group was compared with that in the administration group to determine the efficacy.

Sequence of CYP3A4 (P08684 whole entry): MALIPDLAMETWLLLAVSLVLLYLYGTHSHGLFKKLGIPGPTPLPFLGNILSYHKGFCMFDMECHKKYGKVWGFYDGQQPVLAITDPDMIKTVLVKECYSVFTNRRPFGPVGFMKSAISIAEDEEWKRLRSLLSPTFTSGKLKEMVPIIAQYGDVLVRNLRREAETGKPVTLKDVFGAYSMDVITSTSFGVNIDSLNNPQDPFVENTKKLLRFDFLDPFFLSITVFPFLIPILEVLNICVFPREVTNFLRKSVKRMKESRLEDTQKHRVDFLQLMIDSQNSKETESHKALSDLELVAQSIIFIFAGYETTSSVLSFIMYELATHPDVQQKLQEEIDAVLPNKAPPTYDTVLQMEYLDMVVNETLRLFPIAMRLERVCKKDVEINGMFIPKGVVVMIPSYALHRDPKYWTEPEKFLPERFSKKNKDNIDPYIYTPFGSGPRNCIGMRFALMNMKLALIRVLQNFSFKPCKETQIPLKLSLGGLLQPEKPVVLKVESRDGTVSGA

For `Cc1nc(N[C@H](C)c2cccc(S(F)(F)(F)(F)F)c2)c2cn(C3(CF)CC3)c(=O)cc2n1` [Compound I-3, (R)-6-(1-(fluoromethyl)cyclopropyl)-2-methyl-4-((1-(3-(pentafluorosulfanyl)phenyl)ethyl)amino)pyrido[4,3-d]pyrimidin-7(6H)-one], the “inhibitory effect on CYP3A4 enzymes (in words)” value (CYP3A4) was “more significant inhibitory effect”.

Work on `Cc1nc(N[C@H](C)c2cccc(OC(F)F)c2F)c2cn(C3(C(F)F)CC3)c(=O)cc2n1` [Compound I-12, (R)-4-((1-(3-(difluoromethoxy)-2-fluorophenyl)ethyl)amino)-6-(1-(difluoromethyl)cyclopropyl)-2-methylpyrido[4,3-d]pyrimidin-7(6H)-one] yielded an IC50 [1] of 196 nM and an IC50 (KRAS G12C-SOS1) of 22.2 nM.

Compound `COCC1(n2cc3c(N[C@H](C)c4cccc(S(F)(F)(F)(F)F)c4)nc(C)nc3cc2=O)CC1` [Compound I-13, (R)-6-(1-(methoxymethyl)cyclopropyl)-2-methyl-4-((1-(3-(pentafluorosulfanyl)phenyl)ethyl)amino)pyrido[4,3-d]pyrimidin-7(6H)-one] has an IC50 (H358 cells) of 15.7 nM and an IC50 [1] of 109 nM.

For `Cc1nc(N[C@H](C)c2cccc(S(F)(F)(F)(F)F)c2)c2cn([C@H]3C[C@](C)(O)C3)c(=O)cc2n1` [Compound I-15, 6-((1r,3R)-3-hydroxy-3-methylcyclobutyl)-2-methyl-4-(((R)-1-(3-(pentafluorosulfanyl)phenyl)ethyl)amino)pyrido[4,3-d]pyrimidin-7(6H)-one], the IC50 (KRAS G12C-SOS1) was 14.4 nM.

Compound `Cc1nc(N[C@H](C)c2cccc(S(F)(F)(F)(F)F)c2)c2cn(C3CC(F)(F)C3)c(=O)cc2n1` [Compound I-16, (R)-6-(3,3-difluorocyclobutyl)-2-methyl-4-((1-(3-(pentafluorosulfanyl)phenyl)ethyl)amino)pyrido[4,3-d]pyrimidin-7(6H)-one] has an IC50 (KRAS G12C-SOS1) of 16.1 nM.

`CC(=O)N1CCC(C)(n2cc3c(N[C@H](C)c4cccc(S(F)(F)(F)(F)F)c4)nc(C)nc3cc2=O)CC1` [Compound I-17, (R)-6-(1-acetyl-4-methylpiperidin-4-yl)-2-methyl-4-((1-(3-(pentafluorosulfanyl)phenyl)ethyl)amino)pyrido[4,3-d]pyrimidin-7(6H)-one] gave an IC50 (H358 cells) of 12.1 nM and an IC50 [1] of 119 nM.

For `CC(=O)N1CCC(C)(n2cc3c(N[C@H](C)c4cccc(S(F)(F)(F)(F)F)c4)nc(C)nc3cc2=O)C1` (stereo partly drawn) [Compound I-18, 6-(1-acetyl-3-methylpyrrolidin-3-yl)-2-methyl-4-(((R)-1-(3-(pentafluorosulfanyl)phenyl)ethyl)amino)pyrido[4,3-d]pyrimidin-7(6H)-one], the IC50 (H358 cells) was 9.2 nM and the IC50 [1] was 115 nM.

In the case of `Cc1nc(N[C@H](C)c2cccc(S(F)(F)(F)(F)F)c2)c2cn([C@H]3C[C@H](F)C3)c(=O)cc2n1` [Compound I-19, 6-((1R,3R)-3-fluorocyclobutyl)-2-methyl-4-(((R)-1-(3-(pentafluorosulfanyl)phenyl)ethyl)amino)pyrido[4,3-d]pyrimidin-7(6H)-one], the IC50 (H358 cells) is reported as 137 nM, the IC50 [1] is reported as 131 nM and the IC50 (KRAS G12C-SOS1) is reported as 9.5 nM.

Work on `Cc1nc(N[C@H](C)c2cccc(S(F)(F)(F)(F)F)c2)c2cn(C3(C)CCOC3)c(=O)cc2n1` (stereo partly drawn) [Compound I-20, 2-methyl-6-(3-methyltetrahydrofuran-3-yl)-4-(((R)-1-(3-(pentafluorosulfanyl)phenyl)ethyl)amino)pyrido[4,3-d]pyrimidin-7(6H)-one] yielded an IC50 (H358 cells) of 31 nM and an IC50 [1] of 92 nM.

With `Cc1nc(N[C@H](C)c2cccc(S(F)(F)(F)(F)F)c2)c2cn(C3(C)CCOCC3)c(=O)cc2n1` [Compound I-21, (R)-2-methyl-6-(4-methyltetrahydro-2H-pyran-4-yl)-4-((1-(3-(pentafluorosulfanyl)phenyl)ethyl)amino)pyrido[4,3-d]pyrimidin-7(6H)-one] the IC50 (H358 cells) was 85.1 nM, the IC50 [1] was 141 nM and the IC50 (KRAS G12C-SOS1) was 6.9 nM.

In the case of `Cc1nc(N[C@H](C)c2cccc(S(F)(F)(F)(F)F)c2)c2cn(C3(C)CC3)c(=O)cc2n1` [Compound I-22, (R)-2-methyl-6-(1-methylcyclopropyl)-4-((1-(3-(pentafluorosulfanyl)phenyl)ethyl)amino)pyrido[4,3-d]pyrimidin-7(6H)-one], the IC50 (H358 cells) is reported as 10.7 nM and the IC50 (KRAS G12C-SOS1) is reported as 21.7 nM.

In the case of `Cc1nc(N[C@H](C)c2cccc(C(F)F)c2F)c2cn(C3(C(F)F)CC3)c(=O)cc2n1` [Control compound II, reference compound], the AUC(0-t) [2] is reported as 1 µg·h/mL, the Cmax [2] is reported as 0.669 µg/mL and the Tmax [2] is reported as 30 min. For the same compound, the half-life [2] was 57.6 min.

For `CC(=O)Nc1cccc(-n2c(=O)n(C3CC3)c(=O)c3c(Nc4ccc(I)cc4F)n(C)c(=O)c(C)c32)c1` [Trametinib, reference compound], the “Tumor weight inhibition rate (relative to the vehicle group)” value [3] was 80%.
